According to US10400006B2, “Estrogen receptor modulators” (THE REGENTS OF THE UNIVERSITY OF CALIFORNIA, priority 2014, dated 2019):
Entries after “also recorded” stand apart in the source; their conditions may differ.

Experiments:
[1] = system: human MCF-7 breast cancer cells; assay: MCF-7 cell proliferation, BrdU ELISA, in presence of 1 nM estradiol-17β; assay type: cell-based; details: for inhibition of MCF-7 cell proliferation/survival: 1 μM or 50 μM, in presence of 1 nM estradiol-17β, 72 hr; for effectiveness compared with fulvestrant in MCF-7 proliferation: same doses in vitro (1 μM or 50 μM)
Procedure: In experiments to assess potential proliferative effects of novel estrogen receptor ligands, human breast cancer cells were grown in phenol red-free, estrogen-free media with 1% dextran-coated charcoal-treated (DCC)-fetal bovine serum (FBS) for 48 hrs (15,44), then treated with either 1 μM or 50 μM doses of estrogen receptor antagonists in the presence of 1 nM estradiol-17β. Cell counts and viability tests (Trypan blue) were done every 24 hr for 3 days. After 72 hr, proliferation was assessed using the BrdU Cell proliferation ELISA (Roche). Cell numbers were also assessed initially by cell counts to confirm ELISA data. Each antiestrogen was tested at least in three different experiments.
In order to assess the antitumor action of novel estrogen receptor antagonists, we cultured human MCF-7 breast cancer cells with known expression of ERα. […] Cell proliferation is expressed as percentage of that determined in the 1 nM estradiol-17β-treated control group.

estrogen receptor-alpha = target: T1, estrogen receptor-alpha (Homo sapiens, UniProt P03372); assay: Western immunoblot of ERα protein levels in MCF-7 cells after 48 hrs; assay type: cell-based; details: 1 μM or 10 μM, in presence of 1 nM estradiol-17β
T1 construct: MCF-7 breast cancer cells with high expression of ERα protein were treated with estradiol-17β; endogenous in cells; host or cells: MCF-7 human breast cancer cells
T1 sequence (P03372 1-595): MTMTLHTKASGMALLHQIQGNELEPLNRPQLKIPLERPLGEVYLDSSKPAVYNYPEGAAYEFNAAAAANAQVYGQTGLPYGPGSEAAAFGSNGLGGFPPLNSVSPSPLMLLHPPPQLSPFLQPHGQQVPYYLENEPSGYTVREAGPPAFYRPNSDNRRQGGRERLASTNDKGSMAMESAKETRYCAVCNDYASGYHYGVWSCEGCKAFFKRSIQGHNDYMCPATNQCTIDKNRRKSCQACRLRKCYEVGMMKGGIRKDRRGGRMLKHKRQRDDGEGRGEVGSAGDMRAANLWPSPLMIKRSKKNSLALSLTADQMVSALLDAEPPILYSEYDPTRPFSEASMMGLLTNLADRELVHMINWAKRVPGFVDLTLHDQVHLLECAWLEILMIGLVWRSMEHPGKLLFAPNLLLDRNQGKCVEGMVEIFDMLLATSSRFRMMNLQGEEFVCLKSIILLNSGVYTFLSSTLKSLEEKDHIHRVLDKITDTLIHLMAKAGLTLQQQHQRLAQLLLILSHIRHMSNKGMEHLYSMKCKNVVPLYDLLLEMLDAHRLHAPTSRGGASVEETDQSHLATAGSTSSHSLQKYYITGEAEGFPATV

[2] = system: human non-small cell lung cancer cells A549; assay: A549 non-small cell lung cancer cell proliferation, MTS assay; assay type: cell-based; details: 1 μM or 10 μM, 72 hours, compared with fulvestrant
Procedure: Cell counts and viability tests (Trypan blue) were done every 24 hours for 3 days. After 72 hours, proliferation was assessed using the CellTiter 96™ AQueous One Solution Cell Proliferation Assay (MTS) from Promega. Cell numbers were also assessed initially by cell counts to confirm ELISA data. Each antiestrogen was tested in at least in three independent experiments.

estrogen receptor = target: T2, estrogen receptor (Homo sapiens, UniProt P03372); assay: Specific [3H]estradiol-17β binding in MCF-7 parental cells; details: 10 μM compound, 2 nM [3H]estradiol-17β
T2 construct: endogenous in cells; host or cells: MCF-7 parental breast cancer cells
T2 sequence (P03372 1-595): T1 sequence (P03372 1-595)
Procedure: Specific estradiol binding: Specific estradiol-17β (E2) binding was assessed in MCF-7 parental breast cancer cells as before (14-16). Briefly, cells were incubated with 2 nM [^3H]estradiol-17β and varying concentrations (1 nM-10 μM) of new estrogen receptor downregulator (ERD) analogues. The efficiency of the binding of compounds was measured by the loss of radioactivity of the [^3H]estradiol-17β. A 100-fold molar excess of unlabeled E2 was present with [3H]estradiol-17β in paired samples for determination of displaceable binding. […] Compounds S1-S14 are test compounds different from the exemplified compounds described herein.

ER protein = target: T3, ER protein (Homo sapiens, UniProt P03372); assay: ER down-regulation, Western immunoblot of ER (66 kD) in MCF-7 cells; assay type: cell-based; details: 24 hours, 10, 100 and 1000 nM
T3 construct: endogenous in cells; host or cells: MCF-7 breast tumor cells
T3 sequence (P03372 1-595): T1 sequence (P03372 1-595)
Source text: ER down-regulation: To determine if selected compounds can down-regulate ER protein, we treated cells for 24-48 hrs in vitro with candidate compounds at varying doses. Then, cells were disrupted and prepared for PAGE and Western immunoblots using anti-ERα antibodies (see FIG. 6). […] Those ERDs with optimal activity in down-regulating ER were investigated further in the chemistry laboratory to further refine and develop such agents.

[3] = system: MAPK, ERK-1 (p44) and ERK-2 (p42); assay: Estrogen-induced phosphorylation of MAPK in MCF-7 parental cells, Western blot; assay type: cell-based, human; details: for E2-induced rapid phosphorylation of ERK-1 and ERK-2 after pre-incubation: 1000 nM, in presence of estradiol (E2)
Procedure: ERD inhibition of phosphorylation of MAPK, at both extracellular signal-regulated kinases ERK-1 (p44) and ERK-2 (p42) and downstream effects. […] Thus, we measured estrogen-induced phosphorylation of MAPK by established methods (9,15,16). Briefly, MCF-7 parental cells were estrogen deprived for 48 hrs, then treated with 1 nM estradiol-17β in the presence of new compounds (10 nM-10 μM) to be tested for antagonist activity. After treatments, cell lysates were separated by SDS-PAGE followed by Western blot using a polyclonal antibody directed to phospho-p44/p42 MAP kinase (Thr202/Tyr204) (Cell Signaling). Immunodetection with antibody against total p44/p42 (Cell Signaling) was done as a control for gel loading. […] E2 but not vehicle (CN) induced rapid phosphorylation of ERK-1 (p44) and ERK-2 (p42). This activation was prevented when cells were pre-incubated with 1000 nM ICI 182,780 (ICI; Faslodex) or 1000 nM compound S15 in the presence of estradiol (E2).

MCF-7 parental cells = details: xenografts in nude mice; cited from earlier work
MCF-7/HER-2 cells = details: xenografts in nude mice; cited from earlier work
[4] = clinic; cited from earlier work
ER+ early breast cancer = details: cited from earlier work

C[C@]12C[C@H](Oc3ccc(N)c(C(F)(F)F)c3)[C@@H]3c4ccc(O)cc4CC[C@H]3[C@@H]1CC[C@@H]2O [JD128, (8S,9S,11S,13S,14S,17S)-11-(4-Amino-3-(trifluoromethyl)phenoxy)-13-methyl-7,8,9,11,12,13,14,15,16,17-decahydro-6H-cyclopenta[a]phenanthrene-3,17-diol]
inhibition of MCF-7 cell proliferation/survival [1]: significant inhibition
effectiveness compared with fulvestrant in MCF-7 proliferation [1]: more effective than the ER-downregulator fulvestrant
ERα protein expression in MCF-7 cells (estrogen receptor-alpha): greatest effect at suppressing estrogen receptor-alpha expression

C[C@]12C[C@H](Oc3ccc(NC(=O)CCCCN4CCCCC4)c(F)c3)[C@@H]3c4ccc(O)cc4CC[C@H]3[C@@H]1CC[C@@H]2O [JD140, N-(4-(((8S,9S,11S,13S,14S,17S)-3,17-Dihydroxy-13-methyl-7,8,9,11,12,13,14,15,16,17-deca-hydro-6H-cyclopenta[a]phenanthren-11-yl)oxy)-2-fluorophenyl)-5-(piperidin-1-yl)pentan-amide]
inhibition of MCF-7 cell proliferation/survival [1]: significant inhibition
effectiveness compared with fulvestrant in MCF-7 proliferation [1]: more effective than the ER-downregulator fulvestrant
ERα protein expression in MCF-7 cells (estrogen receptor-alpha): down-regulated
antiproliferative effects in A549 cells [2]: significant antiproliferative effects

C[C@]12C[C@H](Oc3ccc(N)cc3)[C@@H]3c4ccc(O)cc4CC[C@H]3[C@@H]1CC[C@@H]2O [JD105, (8S,9S,11S,13S,14S,17S)-11l-(4-aminophenoxy)-13-methyl-7,8,9,11,12,13,14,15,16,17-decahydro-6H-cyclopenta[a]phenanthrene-3,17-diol]
suppression of specific binding of [3H]estradiol-17β (estrogen receptor): suppressed
suppression of specific binding of [3H]estradiol-17β (estrogen receptor; listed as S15): suppressed effectively
ER protein levels in MCF-7 cells (ER protein): reduces ER protein levels
inhibition of estrogen-induced phosphorylation of MAPK (ERK-1 p44 and ERK-2 p42) ([3]; 1 nM estradiol-17β): inhibits phosphorylation of MAPK
E2-induced rapid phosphorylation of ERK-1 and ERK-2 after pre-incubation [3]: prevented
effectiveness compared with fulvestrant in inhibiting estrogen-induced MAPK phosphorylation ([3]; breast tumor cells in vitro): as effective as fulvestrant

C[C@]12CC[C@@H]3c4ccc(O)cc4C[C@@H](CCCCCCCCC[S+]([O-])CCCC(F)(F)C(F)(F)F)[C@H]3[C@@H]1CC[C@@H]2O (stereo partly drawn) [fulvestrant]
E2-induced rapid phosphorylation of ERK-1 and ERK-2 after pre-incubation [3]: prevented
growth of parent MCF-7 tumors (MCF-7 parental cells): suppressed
sensitivity of MCF-7/HER-2 tumors (MCF-7/HER-2 cells): partially sensitive
bioavailability [4]: very low bioavailability; also recorded: low bioavailability

CC/C(=C(\c1ccccc1)c1ccc(OCCN(C)C)cc1)c1ccccc1 [tamoxifen]
growth of parent MCF-7 tumors (MCF-7 parental cells): suppressed
sensitivity of MCF-7/HER-2 tumors (MCF-7/HER-2 cells): insensitive
reduction in disease recurrence (ER+ early breast cancer): 39%
reduction in mortality (ER+ early breast cancer): 31%
